Data published in patent US8497298B2, “Use of benzo-fused heterocycle sulfamide derivatives for lowering lipids and lowering blood glucose levels” (Janssen Pharmaceutica NV, priority 2005, dated 2013).

What was measured:
[1] = system: Zucker diabetic fatty (ZDF Gmi-fa/fa) rats; assay: Zucker Diabetic Fatty Rats Assay, Study B: basal glucose and Day 8 plasma parameters (Example 15); type: in vivo, rat; settings: for Basal glucose levels Day 4: Day 4, 2 hour fasted; for Basal glucose levels Day 4 / Basal glucose levels Day 6 / Basal glucose levels Day 0: in mg/dL; for Basal glucose levels Day 6: Day 6, 2 hour fasted; for Cholesterol / HDL / Insulin / Ratio (Triglyceride to HDL) / Triglyceride: Day 8 plasma; for Basal glucose levels Day 0: female ZDF rats
Procedure: (§1) Compound #8 was suspended in 0.5% Methocel using a hand held homogenizer to reduce the particle size and a magnetic stir bar and stir plate to keep the particles homogeneously suspended throughout the dosing period. 0.5% Hydroxypropyl Methylcellulose (Methocel) used as vehicle/control. Compound #8 was tested in both diabetic models of mouse and rat.
(§2) In this study, female Zucker diabetic fatty (ZDF Gmi-fa/fa) rats were selected for glucose lowering effect and oral glucose tolerance test (OGTT) studies. ZDF rats from (Charles River Laboratories, Wilmington, Mass.) at 7 weeks of age were individually housed and fed with C13004 diet (obtained from Research Diets, New Brunswick, N.J.). All of the rats were quarantined for a period of one week before transfer to the animal procedure room. A drop of blood (about 2 microliters) was collected by tail puncture and glucose concentration was detected with a glucometer (OneTouch UltraSmart, Lifescan, Milpitas, Calif.).
(§3) ZDF rats at 8 weeks of age were randomized into four treatment groups based on glucose values (first criterion, average of 150 mg/dL) and body weight (second criterion, average of 240 g). 32 rats were allocated into 4 treatment groups of 8 rats each. The four groups were then treated with 0.5% Methocel (vehicle), 10 mg/kg Compound #8, 30 mg/kg Compound #8, and 100 mg/kg Compound #8 in vehicle, respectively.
(§4) The rats were orally gavaged once daily (at 1500-1700 hour) with vehicle control (0.5% Methocel, pH7.4) or vehicle containing Compound #8 for 7 days. The dosing volume was 5 mL/kg body weight (1.2 mL for 250 gram rat). The rats were fed ad lib throughout the study.
(§5) Basal glucose levels after treatments were measured on Day 4 and Day 6 in 2 hour fasted rats with a glucometer (OneTouch UltraSmart, Lifescan, Milpitas, Calif.) after collecting two microliters of blood through tail puncture. Oral Glucose Tolerance Test (OGTT) was performed on Day 7 in 4 hour-fasted rats. Two hours after being dosed with Compound #8 or vehicle, the rats were gavaged with a 2g/kg of 50% glucose solution right after basal glucose levels measurement (0 minute). Blood glucose levels were then measured at 30, 60, 90 and 120 minutes through tail puncture.
On Day 8, rats were anaesthetized with sodium pentobarbital (1 ml/kg, intraperitoneal [i.p.] injection, SleepAway, Fort Dodge, Iowa) and blood was drawn via cardiac puncture using 3 mL syringe and collected into heparinized tubes. Plasma samples were obtained by centrifuging whole blood at 2000˜3000 g for 10˜20 minutes at 4° C. and stored at −20° C. for further measurement of insulin, HDL, total cholesterol and triglyceride.
Plasma insulin concentrations were measured by in both studies using the appropriate rat/mouse insulin enzyme-linked immunosorbent assay (ELISA) kit (EZRMI-13K, LINCO Research, St. Charles, Mo.). Blood samples were diluted 1:4 in charcoal stripped mouse serum that was included in the ELISA kit. The rest of the procedure followed the manufacturers instruction. The total fluorescence was detected using an Orion 1 Microplate Luminometer (Berthold Detection Systems, Pforzheim, Germany).
Plasma total cholesterol, high density lipoprotein (HDL), low density lipoprotein (LDL) and triglyceride concentrations were measured by using a Bayer ADVIA 1650 blood chemistry analyzer (Bayer HealthCare LLC, Diagnostic Division, Tarrytown, N.Y.). According to manufacturers protocol, cholesterol measurement was an enzymatic method utilizing cholesterol esterase and cholesterol oxidase conversion followed by a Trinder endpoint; Elimination/catalase method was used for HDL measurement; an enzymatic method with a Trinder endpoint was used for triglyceride measurement.
(§6) Data from this study was analyzed using the standard two-tailed Student's t-test and are expressed below as means and standard errors.

[2] = system: Zucker diabetic fatty (ZDF Gmi-fa/fa) rats; assay: Oral Glucose Tolerance Test (OGTT) in Zucker diabetic fatty rats, Day 7 (Example 15); type: in vivo, rat; settings: for AUC for blood glucose (OGTT) / OGTT blood glucose 30 min / OGTT blood glucose 60 min / OGTT blood glucose 90 min / OGTT blood glucose 120 min: Day 7; for OGTT blood glucose 0 min: Day 7, 4 hour-fasted, 2g/kg glucose
Procedure: as §1, §2, §3, §4, §5, §6

NS(=O)(=O)NC[C@H]1COc2cc(Cl)ccc2O1 [Compound #8, (2S)-(−)-N-(6-Chloro-2,3-dihydro-benzo[1,4]dioxin-2-ylmethyl)-sulfamide]
Basal glucose levels Day 4 ([1]; 10 mg/kg oral once daily): 148 ± 15
Basal glucose levels Day 6 ([1]; 10 mg/kg oral once daily): 190 ± 28
Cholesterol ([1]; 10 mg/kg): 142 ± 6 mg/dL
HDL ([1]; 10 mg/kg): 36 ± 1.0 mg/dL
Insulin ([1]; 10 mg/kg): 16 ± 1.0 ng/mL
Ratio (Triglyceride to HDL) ([1]; 10 mg/kg): 37 ± 3
Triglyceride ([1]; 10 mg/kg): 1323 ± 124 mg/dL
Basal glucose levels Day 4 ([1]; 30 mg/kg oral once daily): 146 ± 9
Basal glucose levels Day 6 ([1]; 30 mg/kg oral once daily): 151 ± 11
Cholesterol ([1]; 30 mg/kg): 144 ± 11 mg/dL
HDL ([1]; 30 mg/kg): 36 ± 1.1 mg/dL
Insulin ([1]; 30 mg/kg): 14 ± 1.1 ng/mL
Ratio (Triglyceride to HDL) ([1]; 30 mg/kg): 39 ± 7
Triglyceride ([1]; 30 mg/kg): 1383 ± 254 mg/dL
Basal glucose levels Day 4 ([1]; 100 mg/kg oral once daily): 125 ± 4
Basal glucose levels Day 6 ([1]; 100 mg/kg oral once daily): 134 ± 5
plasma insulin decreased ([1]; 100 mg/kg, Day 8): 32%
ratio of triglyceride to HDL reduced ([1]; 100 mg/kg, Day 8): 59%
Cholesterol ([1]; 100 mg/kg): 134 ± 7 mg/dL
HDL ([1]; 100 mg/kg): 41 ± 2.2 mg/dL
Insulin ([1]; 100 mg/kg): 8.8 ± 1.2 ng/mL
Ratio (Triglyceride to HDL) ([1]; 100 mg/kg): 19 ± 3
Triglyceride ([1]; 100 mg/kg): 776 ± 119 mg/dL
food intake and weight loss ([1]; any of the groups (10, 30, 100 mg/kg)): No reduction in food intake reduction or weight loss
Basal glucose levels Day 0 ([1]; 10 mg/kg group): 153 ± 13
Basal glucose levels Day 0 ([1]; 30 mg/kg group): 152 ± 11
Basal glucose levels Day 0 ([1]; 100 mg/kg group): 147 ± 7
AUC for blood glucose (OGTT) ([2]; 10 mg/kg): 33279 ± 3607 mg·min/dL
OGTT blood glucose 30 min ([2]; 10 mg/kg): 281 ± 30
OGTT blood glucose 60 min ([2]; 10 mg/kg): 316 ± 33
OGTT blood glucose 90 min ([2]; 10 mg/kg): 293 ± 24
OGTT blood glucose 120 min ([2]; 10 mg/kg): 252 ± 30
OGTT blood glucose 0 min ([2]; 10 mg/kg): 186 ± 30
AUC for blood glucose (OGTT) ([2]; 30 mg/kg): 28556 ± 2477 mg·min/dL
OGTT blood glucose 30 min ([2]; 30 mg/kg): 244 ± 24
OGTT blood glucose 60 min ([2]; 30 mg/kg): 263 ± 18
OGTT blood glucose 90 min ([2]; 30 mg/kg): 253 ± 23
OGTT blood glucose 120 min ([2]; 30 mg/kg): 221 ± 18
OGTT blood glucose 0 min ([2]; 30 mg/kg): 163 ± 18
AUC for blood glucose (OGTT) ([2]; 100 mg/kg): 21529 ± 984 mg·min/dL
OGTT blood glucose 30 min ([2]; 100 mg/kg): 209 ± 14
OGTT blood glucose 60 min ([2]; 100 mg/kg): 200 ± 10
OGTT blood glucose 90 min ([2]; 100 mg/kg): 175 ± 8
OGTT blood glucose 120 min ([2]; 100 mg/kg): 145 ± 7
OGTT blood glucose 0 min ([2]; 100 mg/kg): 123 ± 5
